The values below come from publication PMC12181260, “Design and synthesis of novel pyridopyrimidine moieties linked to coumarin ring of potentially active cytotoxic agents and their docking study” (Scientific Reports, 2025).

The test system of test [1] is HepG2. The test can be described thus: Cytotoxicity (anticancer screening) on HepG2. Format: cell-based, human. The following applies: for IC50: HepG2, human hepatocellular liver carcinoma cell line, 72 h of incubation; for activity class against HepG2: SAR statement, four tested cell lines. The source says:
(§1) Keeping the aforementioned details in mind, the objective of this study was to synthesize new pharmaceuticals for anticancer assessment as a trial to produce newer antitumor drugs with increased activity and minimal adverse effects. Human hepatocellular liver carcinoma cell line (HepG2), human lung fibroblast cell line (WI-38), human breast adenocarcinoma cell line (MCF-7), and normal adult African green monkey kidney cell line (VERO) were the four different types of […] cell lines used to test the anticancer activity of all newly synthesized compounds (Fig. 5).
(§2) It was carried out according to the previously reported work[48].

Test [2] relates to WI-38. The test can be described thus: Cytotoxicity (anticancer screening) on WI-38. Format: cell-based, human. The note with it: for IC50: WI-38, human lung fibroblast cell line, 72 h of incubation; for activity class against WI-38: SAR statement, four tested cell lines.
Source text: as §1, §2

The test system of test [3] is VERO. The test can be described thus: Cytotoxicity (anticancer screening) on VERO. Format: cell-based. The note with it: Chlorocebus sabaeus, normal adult African green monkey kidney cell line, 72 h of incubation.
Source text: as §1, §2

The subject of test [4] is MCF-7. The test can be described thus: Cytotoxicity (anticancer screening) on MCF-7. Format: cell-based, human. The following applies: for IC50: MCF7, human breast adenocarcinoma cell line, 72 h of incubation; for activity class against MCF-7: SAR statement, four tested cell lines.
Source text: as §1, §2

In brackets after ≈: the same amount, converted by molar mass.

As to `Cc1cc(=O)oc2c1ccc1oc(=N)c(C#N)cc12` [Compound 3, 8-imino-4-methyl-2-oxo-2 H,8 H-pyrano[2,3-f]chromene-9-carbonitrile], the concentration for half-maximal inhibition (IC50) (as a rule, the concentration needed to halve the response being measured) in test [1] turned out to be 59 ± 0.22 µg/mL (≈ 234 µM); in test [2], 68.2 ± 0.07 µg/mL (≈ 270 µM); in test [3], 71.02 ± 0.05 µg/mL (≈ 282 µM); in test [4], 70 ± 0.06 µg/mL (≈ 278 µM).
For `Cc1cc(=O)oc2c1ccc1oc3nc(CC#N)nc(=N)c-3cc12` [Compound 4, 2-(11-Imino-4-methyl-2-oxo-2 H,11 H-pyrano[2’,3’:5,6]chromeno[2,3-d]pyrimidin-9-yl) acetonitrile], in that order: 24.5 ± 0.11 µg/mL (≈ 77 µM), 31 ± 0.01 µg/mL (≈ 97.4 µM), 34.1 ± 0.15 µg/mL (≈ 107 µM) and 31.4 ± 0.11 µg/mL (≈ 98.7 µM).
For `Cc1cc(=O)oc2c3c(ccc12)Oc1nc(CC#N)nc2nc(N)c(C#N)c-3c12` [Compound 5, 2-amino-5-(cyanomethyl)-10-methyl-12-oxo-12 H-7,13-dioxa-3,4,6-triazabenzo[no]tetraphene-1-carbonitrile], in that order: 21.2 ± 1.22 µg/mL (≈ 55.4 µM), 27.5 ± 0.31 µg/mL (≈ 71.9 µM), 31.2 ± 0.02 µg/mL (≈ 81.6 µM) and 30 ± 1.01 µg/mL (≈ 78.5 µM).
For `O=c1[nH]cc(F)c(=O)[nH]1` [Compound 5-Flu, 5-fluorouracil, reference compound], in that order: 2.5 ± 1.03 µg/mL (≈ 19.2 µM), 5.5 µg/mL (≈ 42.3 µM), 4 ± 0.04 µg/mL (≈ 30.8 µM) and 3 ± 0.02 µg/mL (≈ 23.1 µM).
Turning to `Cc1cc(=O)oc2c3c(ccc12)Oc1nc(CC#N)nc2nc(-c4ccccc4)cc-3c12` [Compound 6, 2-(10-Methyl-12-oxo-2-phenyl-12 H-7,13-dioxa-3,4,6-triazabenzo[no]tetraphene-5-yl) acetonitrile], the half-inhibitory concentration (IC50) was found to be 19.1 ± 1.13 µg/mL (≈ 45.6 µM) in test [1], 26 ± 0.21 µg/mL (≈ 62.1 µM) in test [2], 24.1 ± 0.19 µg/mL (≈ 57.6 µM) in test [3] and 22.5 ± 0.04 µg/mL (≈ 53.8 µM) in test [4].
In the case of `Cc1cc(=O)oc2c3c(ccc12)Oc1nc(CC#N)nc2nc4c(c-3c12)CCC4` [Compound 7, 2-(14-Methyl-12-oxo-9,10-dihydro-8 H,12 H-3,11-dioxa-4,6,7-triazaindeno[6,5,4-no]tetraphen-5-yl)acetonitrile], in test [1], the IC50 is 9.6 ± 1.22 µg/mL (≈ 25.1 µM) and the “activity class against HepG2” value is listed as “very strong (1–10 (very strong))”. In addition, in test [2], the “activity class against WI-38” value is given as “very strong (1–10 (very strong))” and the IC50 came to 9.9 ± 1.04 µg/mL (≈ 25.9 µM). Besides, the IC50 in test [3] was determined as 11.5 ± 0.05 µg/mL (≈ 30.1 µM). In addition, in test [4], half-maximal inhibition (IC50) was put at 9.5 ± 0.04 µg/mL (≈ 24.8 µM) and the “activity class against MCF-7” value was “very strong (1–10 (very strong))”.
With `Cc1cc(=O)oc2c3c(ccc12)Oc1nc(CC#N)nc2nc4c(c-3c12)CCCC4` [Compound 8, 2-(15-Methyl-13-oxo-8,9,10,11-tetrahydro-13 H-3,12-dioxa-4,6,7-triazanaphtho[3,2,1-no]tetraphen-5-yl)acetonitrile], in test [1], the IC50 was 4.9 ± 0.11 µg/mL (≈ 12.4 µM) and the “activity class against HepG2” value is listed as “very strong (1–10 (very strong))”. In addition, in test [2], the “activity class against WI-38” value was “very strong (1–10 (very strong))” and the concentration for half-maximal inhibition (IC50) is 7.5 ± 0.01 µg/mL (≈ 18.9 µM). Moreover, the IC50 in test [3] is 5.7 ± 0.06 µg/mL (≈ 14.4 µM). In test [4], the IC50 is 5.1 ± 0.18 µg/mL (≈ 12.9 µM) and the “activity class against MCF-7” value was “very strong (1–10 (very strong))”.
Consider `Cc1cc(=O)oc2c3c(ccc12)Oc1nc(CC#N)nc2nc4c(c-3c12)CCCCC4` [Compound 9, 2-(16-Methyl-14-oxo-9,10,11,12-tetrahydro-8 H,14 H-3,13-dioxa-4,6,7-triazacyclohepta[4,5]benzo[1,2,3-no]tetraphen-5-yl)acetonitrile], for which the concentration for half-maximal inhibition (IC50) in test [1] was 5.4 ± 1.22 µg/mL (≈ 13.2 µM); in test [2], 5.9 ± 0.03 µg/mL (≈ 14.4 µM); in test [3], 6.6 ± 0.02 µg/mL (≈ 16.1 µM); in test [4], 7.2 ± 1.02 µg/mL (≈ 17.5 µM). Besides, the “activity class against HepG2” value in test [1] was “very strong (1–10 (very strong))”. Further, the “activity class against WI-38” value in test [2] is recorded as “very strong (1–10 (very strong))”. The “activity class against MCF-7” value in test [4] is recorded as “very strong (1–10 (very strong))”.
For `Cc1cc(=O)oc2c3c(ccc12)Oc1nc(CC#N)nc2nc4c(c-3c12)CCCCCC4` [Compound 10, 2-(17-Methyl-15-oxo-8,9,10,11,12,13-hexahydro-15 H-3,14-dioxa-4,6,7-triazacycloocta[4,5]benzo[1,2,3-no]tetraphen-5-yl)acetonitrile], in test [1], the IC50 was determined as 5.8 ± 1.03 µg/mL (≈ 13.7 µM) and the “activity class against HepG2” value is recorded as “very strong (1–10 (very strong))”. Besides, in test [2], the “activity class against WI-38” value is given as “very strong (1–10 (very strong))” and the IC50 turned out to be 7.8 ± 0.1 µg/mL (≈ 18.4 µM). This molecule had an IC50 in test [3] of 8.2 ± 1.04 µg/mL (≈ 19.3 µM). For the same molecule, in test [4], the concentration for half-maximal inhibition (IC50) came to 8.9 ± 1.02 µg/mL (≈ 21 µM) and the “activity class against MCF-7” value is “very strong (1–10 (very strong))”.
Consider `Cc1cc(=O)oc2c1ccc1[nH]c(=O)c(C#N)cc12` [Compound 11, 4-Methyl-2,8-dioxo-7,8-dihydro-2 H-pyrano[2,3-f]quinoline-9-carbonitrile], for which the IC50 was determined as 32.2 ± 1.22 µg/mL (≈ 128 µM) in test [1], 39.01 ± 0.07 µg/mL (≈ 155 µM) in test [2], 35.5 ± 0.01 µg/mL (≈ 141 µM) in test [3] and 33.3 ± 1.06 µg/mL (≈ 132 µM) in test [4].
For `Cc1cc(=O)oc2c1ccc1oc(=N)c(C(N)=O)cc12` [Compound 12, 8-Imino-4-methyl-2-oxo-2 H,8 H-pyrano[2,3-f]chromene-9-carboxamide], in that order: 37.5 ± 1.13 µg/mL (≈ 139 µM), 48.2 ± 1.04 µg/mL (≈ 178 µM), 51.3 ± 1.05 µg/mL (≈ 190 µM) and 49.4 ± 0.19 µg/mL (≈ 183 µM).
For `Cc1cc(=O)oc2c3c(ccc12)NC(=O)C1=C(N)OC2=C(CCC2)C13` (centres unmarked) [Compound 13, 2-Amino-7-methyl-10c,11,12,13-tetrahydro-3 H-cyclopenta[5,6]pyrano[3,4-c]pyrano[2,3-f]quinoline-3,9(4 H)-dione], in that order: 45.2 ± 1.13 µg/mL (≈ 134 µM), 56 ± 1.14 µg/mL (≈ 166 µM), 58.2 ± 1.05 µg/mL (≈ 173 µM) and 53 ± 0.19 µg/mL (≈ 158 µM).
Take `Cc1cc(=O)oc2c3c(ccc12)OC(N)=C1C(=O)NC2=C(CCC2)C13` (centres unmarked) [Compound 14, 3-Amino-7-methyl-10c,11,12,13-tetrahydro-9 H-cyclopenta[b]pyrano [2’,3’:5,6]chromeno [4,3-d]pyridine-2,9(1 H)-dione]: the half-inhibitory concentration (IC50) in test [1] was 49 ± 1.22 µg/mL (≈ 146 µM); in test [2], 56 ± 0.32 µg/mL (≈ 166 µM); in test [3] it was 58 ± 1.02 µg/mL (≈ 172 µM); in test [4], 52 ± 0.01 µg/mL (≈ 155 µM).
For `Cc1cc(=O)oc2c1ccc1oc(=O)c(C#N)cc12` [Compound 15, 4-Methyl-2,8-dioxo-2 H,8 H-pyrano[2,3-f]chromene-9-carbonitrile], the half-maximal inhibitory concentration (IC50) in test [1] was found to be 35.2 ± 1.13 µg/mL (≈ 139 µM); in test [2] it was 38 ± 1.22 µg/mL (≈ 150 µM); in test [3] it was 40.3 ± 1.19 µg/mL (≈ 159 µM); in test [4] it was 37.03 ± 0.04 µg/mL (≈ 146 µM).
Take `CCOC(=O)c1cc2c(ccc3c(C)cc(=O)oc32)oc1=N` [Compound 16, ethyl 8-imino-4-methyl-2-oxo-2 H,8 H-pyrano[2,3-f]chromene-9-carboxylate]: the IC50 worked out at 52.5 ± 1.22 µg/mL (≈ 175 µM) in test [1], 59.3 ± 1.04 µg/mL (≈ 198 µM) in test [2], 57.5 ± 0.05 µg/mL (≈ 192 µM) in test [3] and 52.1 ± 0.04 µg/mL (≈ 174 µM) in test [4].
Take `Cc1cc(=O)oc2c1ccc1oc(=N)c3c(=O)oc4c(c3c12)CCC4` [Compound 17, 3-Imino-7-methyl-3,11,12,13-tetrahydro-2 H,9 H-cyclopenta[5,6]pyrano[3,4-c]pyrano [2,3-f]chromene-2,9-dione]: the IC50 turned out to be 40.2 ± 0.23 µg/mL (≈ 120 µM) in test [1], 53.5 ± 0.1 µg/mL (≈ 160 µM) in test [2], 56.2 ± 1.06 µg/mL (≈ 168 µM) in test [3] and 52.5 ± 0.18 µg/mL (≈ 157 µM) in test [4].
In the same order, the values of `CCOC(=O)c1cc2c(ccc3c(C)cc(=O)oc32)oc1=O` [Compound 18, Ethyl 4-methyl-2,8-dioxo-2 H,8 H-pyrano[2,3-f]chromene-9-carboxylate] are 54 ± 0.22 µg/mL (≈ 180 µM), 60.4 ± 0.03 µg/mL (≈ 201 µM), 66.5 ± 1.02 µg/mL (≈ 221 µM) and 57 ± 1.23 µg/mL (≈ 190 µM).
